# Laboratory results taken from patent US9540428B2, “Extracellular matrix heparin-binding domains” (EPFL-TTO, priority 2012, dated 2017).
# B1: VEGF-A165: vascular endothelial growth factor, cytokine applied topically (protein)
# chain: APMAEGGGQNHHEVVKFMDVYQRSYCHPIETLVDIFQEYPDEIEYIFKPSCVPLMRCGGCCNDEGLECVPTEESNITMQIMRIKPHQGQHIGEMSFLQHNKCECRPKKDRARQENPCGPCSERRKHLFVQDPQTCKCSCKNTDSRCKARQLELNERTCRCDKPRR
# B2: PDGF-BB: platelet derived growth factor BB (REGRANEx®) applied topically (protein)
# chain: SLGSLTIAEPAMIAECKTRTEVFEISRRLIDRTNANFLVWPPCVEVQRCSGCCNNRNVQCRPTQVQLRPVQVRKIEIVRKKPIFKKATVTLEDHLACKCETVAAARPVT
# B3: TNC III4-5: fibronectin type III domains 4-5 of tenascin C (protein)
# chain: APRNLRRVSQTDNSITLEWRNGKAAIDSYRIKYAPISGGDHAEVDVPKSQQATTKTTLTGLRPGTEYGIGVSAVKEDKESNPATINAATELDTPKDLQVSETAETSLTLLWKTPLAKFDRYRLNYSLPTGQWVGVQLPRNTTSYVLRGLEPGQEYNVLLTAEKGRHKSKPARVKASTEQA
# B4: TNC III5: fifth fibronectin type III domain of tenascin C, heparin-binding; tested as GST fusion (protein)
# chain: LQVSETAETSLTLLWKTPLAKFDRYRLNYSLPTGQWVGVQLPRNTTSYVLRGLEPGQEYNVLLTAEKGRHKSKPARVKASTEQA
# modifications: left off: a dimerising Fc or GST
# notes: tested as GST fusion
# Columns and labels:
# HUVEC cells = test: HUVEC proliferation with cytokines with or without fibrinogen or Fg β15-66; type: cell-based, human; conditions: 72 hours; ≧100-fold molar excess; VEGF-A165, PlGF-2, FGF-2
# Description: To verify that cytokines bound to Fg β15-66 are still bioactive, the proliferation of HUVEC cells was tested for different cytokines with and without the presence of Fg β15-66. Method: HUVEC cells were stimulated with various cytokines: VEGF-A165, PlGF-2, and FGF-2 with or without fibrinogen or Fg β15-66 in excess (≧100-fold molar excess).
# [1] = target: T1, binding of TNC III1-5 to the cytokines (Homo sapiens, UniProt P24821); test: Competition ELISA: TNC III1-5 binding to cytokines with gradient of full length tenascin or heparin; conditions: high concentrations of competitor; 10 nM TNC III1-5
# T1 construct: factor Xa cleavage site (N); made in house; host or cells: HEK-293E
# T1 sequence (P24821 622-1074): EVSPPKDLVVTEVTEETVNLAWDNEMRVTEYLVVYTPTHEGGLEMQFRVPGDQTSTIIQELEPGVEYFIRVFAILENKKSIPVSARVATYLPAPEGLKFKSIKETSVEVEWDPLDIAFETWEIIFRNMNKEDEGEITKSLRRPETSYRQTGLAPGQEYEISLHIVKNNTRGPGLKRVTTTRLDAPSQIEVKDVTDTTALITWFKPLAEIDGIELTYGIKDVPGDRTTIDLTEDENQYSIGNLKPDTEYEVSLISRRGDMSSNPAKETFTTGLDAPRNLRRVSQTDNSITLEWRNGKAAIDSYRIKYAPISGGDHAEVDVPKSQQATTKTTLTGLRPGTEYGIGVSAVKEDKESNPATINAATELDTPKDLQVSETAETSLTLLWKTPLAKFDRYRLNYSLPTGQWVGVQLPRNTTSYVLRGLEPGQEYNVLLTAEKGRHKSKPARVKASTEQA
# Description: ELISA plates were coated with cytokines or BSA and further incubated with TNC III1-5 in the presence of a gradient of full length tenascin or heparin to verify the specificity of the binding. […] TNC bound to the cytokines, making them unavailable for TNC III1-5, while heparin bound to TNC III1-5, blocking it to bind to the cytokines. Method: 50 nM of cytokine was coated for (1 hr, 37° C.). After blocking with 2% BSA (1 hr, RT). 10 nM TNC III1-5 was applied in PBST (0.05% tween, 0.1% bovine serum albumin (BSA)) (1 hr, RT) in the presence of a gradient of full length tenascin (0, 0.2, 0.6, 1.9, 5.6, 17, 50 nM) or heparin (0.01, 0.64, 3.2, 16, 80, 400, 2000, 10000). TNC III1-5 was detected with HRP-anti-HIS in PBST (1 hr, RT) and developed with TMB. Background values were obtained by applying each tenascin (0, 0.2, 0.6, 1.9, 5.6, 17, 50 nM) or heparin (0.01, 0.64, 3.2, 16, 80, 400, 2000, 10000) concentration to the cytokine without TNC III1-5, and were subtracted as normalization.
# To verify specific binding of tenascin to the cytokines, tenascin (0, 0.1, 0.2, 0.6, 1.9, 5.6, 17, 50 nM) was incubated with PDGF-BB (50 nM) and BSA and detected with mouse anti-tenascin, HRP-anti-mouse, and TMB.
# [2] = target: T2, binding of TNC III1-5 to cytokines (Homo sapiens, UniProt P24821); test: ELISA binding of TNC III1-5 to cytokines in presence of 4 μM heparin; conditions: heparin 4 μM; 100 nM TNC III1-5
# T2 construct: factor Xa cleavage site (N); made in house; host or cells: HEK-293E
# Description: ELISA plates were coated with cytokines or BSA and further incubated with TNC III1-5 to analyze binding of TNC III1-5 to a wide variety of cytokines. […] Results are depicted in FIG. 3. Method: 50 nM of cytokine was coated for (1 hr, 37° C.). After blocking with 2% BSA (1 hr, RT). 100 nM TNC III1-5 was applied in PBST (0.05% tween, 0.1% bovine serum albumin (BSA)) (1 hr, RT). TNC III1-5 was detected with horseradish peroxidase (HRP)-anti-HIS in PBST (1 hr, RT) and developed with 3,3′,5,5′-tetramethylbenzidine (TMB), a soluble colorimetric HRP […]. Addition of sulfuric acid stop solution changes the color to yellow, enabling accurate measurement of the intensity at 450 nm using a spectrophotometer or plate reader. […] Heparin (4 μM) was added to TNC III1-5 to test the effect of blocking the heparin binding site of TNC III1-5, which has been defined as domain TNC III5 (Weber, Zimmermann, et al., 1995).
# SMC = test: Smooth muscle cell proliferation on modified TG-PEG gels with PDGF-BB; type: cell-based
# Description: Method: Three different gels were fabricated, unmodified PEG, and PEG gels modified with TNC III1-5 or FN III9*-10,TNC III1-5 (5 μM). Unbound fragment was washed from the gels. Sequentially, gels were incubated for 1 hour at 37° C. with 100 μL DMEM without PDGF-BB or with PDGF-BB (1 ng per gel). For one set of gels, the media containing PDGF-BB was removed and gels were washed for 1 hour at RT. Cells were added to each gel and a proliferation assay with Alamar Blue was performed at 72 hours.
# skin wounds = conditions: applied topically for five consecutive days; 20 μg/wound VEGF-A165 or 10 μg/wound PDGF-BB; cited from earlier work
# PDGF-BB = PDGF-BB (Homo sapiens, UniProt P01127); test: ELISA of individual TNC domains binding PDGF-BB
# Description: An ELISA was performed to test the affinity of different domains present in TNC1-5 to PDGF-BB as an example cytokine that has shown to bind TNC III1-5. […] Method: ELISA plates were coated with individual TNC domains fused to GST, as well as GST and BSA. Wells were blocked with BSA and then incubated with 2 nM PDGF-BB. Binding of PDGF-BB was detected using an anti-PDGF-BB antibody and then a secondary horseradish peroxidase conjugated antibody.
molecule,measurement,setting,value
fibrinogen [reference compound],"synergistic effect on HUVEC proliferation, cytokines plus protein vs cytokines alone",HUVEC cells,no synergistic effect
heparin,competition of binding of TNC III1-5 to the cytokines,[1],competed away binding
same,effect on binding of TNC III1-5 to cytokines,[2],impaired binding
"TNC: full length tenascin C, extracellular matrix glycoprotein, used as competitor",competition of binding of TNC III1-5 to the cytokines,[1],competed away binding
"FN III9*-10-TNC III1-5: fusion protein of fibronectin integrin binding domain FN III9*-10 and TNC III1-5 with TG substrate, SEQ ID NO:5","SMC proliferation on top of a PEG gel, fusion vs TNC III1-5",SMC; addition of FN III9*-10 to TNC III1-5,significantly enhanced SMC proliferation
same,SMC proliferation on TG-PEG gels (2%),"SMC; in the presence of PDGF-BB, 5 μM fragment, 72 hours",enhanced SMC proliferation
B1,efficacy in the db/db mouse,skin wounds,efficient
B2,efficacy in the db/db mouse,skin wounds,efficient
B3,cytokine-binding,PDGF-BB; test not specified,demonstrated cytokine-binding
B4,domain responsible for binding of PDGF-BB,"PDGF-BB; GST-fused TNC domains coated, 2 nM PDGF-BB",responsible for cytokine binding
